Results taken from patent US9057727B2, “Screening methods using G-protein coupled receptors and related compositions” (The General Hospital Corporation, priority 2007, dated 2015).
Read-outs that look alike come from different tables or passages of the source. Peptide text beside a SMILES is read from it.

Assays:
[1] = molecular target: T1, human PTHR, G protein-coupled conformation (RG) (Homo sapiens, UniProt Q03431); assay: Competition binding to RG conformation of hPTHR (COS-7 membranes, GαsND, 125I-[Aib1,3,M]PTH(1-15) tracer)
T1 construct: expressed in transfected cells; host or cells: COS-7, transient (Fugene-6); membranes
T1 sequence (Q03431 27-593): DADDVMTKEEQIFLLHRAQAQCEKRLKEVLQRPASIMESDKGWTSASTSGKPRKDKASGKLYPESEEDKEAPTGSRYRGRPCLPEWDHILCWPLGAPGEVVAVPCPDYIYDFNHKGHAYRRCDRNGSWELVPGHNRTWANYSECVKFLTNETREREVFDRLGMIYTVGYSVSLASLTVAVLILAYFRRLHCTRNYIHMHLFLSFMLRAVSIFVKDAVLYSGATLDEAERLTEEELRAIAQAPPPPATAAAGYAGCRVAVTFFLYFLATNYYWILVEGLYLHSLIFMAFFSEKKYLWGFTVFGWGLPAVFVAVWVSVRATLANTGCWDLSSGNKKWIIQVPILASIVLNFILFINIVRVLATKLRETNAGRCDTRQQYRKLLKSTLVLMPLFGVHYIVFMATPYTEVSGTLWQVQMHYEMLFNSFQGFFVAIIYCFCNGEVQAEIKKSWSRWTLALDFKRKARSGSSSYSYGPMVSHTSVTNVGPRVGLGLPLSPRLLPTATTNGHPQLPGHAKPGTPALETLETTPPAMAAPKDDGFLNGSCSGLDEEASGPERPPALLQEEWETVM

human PTH1 receptor = molecular target: T2, human PTH1 receptor (Homo sapiens, UniProt Q03431); assay: cAMP signaling dose-response in HKRK-B7 cells; format: cell-based; details: 15 min, 37° C., IBMX
T2 construct: expressed in transfected cells
T2 sequence (Q03431 27-593): T1 sequence (Q03431 27-593)
Method: In the cAMP experiments of FIG. 14, HKRK-B7 were seeded in 96 well plates at 1×10^5 cells/well and incubated overnight. On the following day, the cells were washed once with […] of binding buffer (50 mM Tris-HCl, pH 7.7, 100 mM NaCl, 5 mM KCl, 2 mM CaCl2, 5% heat-inactivated horse serum, 0.5% heat-inactivated fetal bovine serum), followed by addition of 100 μl cAMP assay buffer (DMEM, 2 mM IBMX, 1 mg/ml bovine serum albumin, 35 mM Hepes-NaOH, pH 7.4) on ice. […] After removing the medium, the plates were placed on powdered dry ice to freeze the cells and then removed from dry ice. The cells were thawed with 50 μl of 50 mM HCl and frozen again on dry ice. The level of intracellular cAMP was measured with a commercially available cAMP EIA kit (Biotrack cAMP EIA system, GE Healthcare).
HKRK-B, which are LLC-PK1 cells over-expressing human PTH1 receptor at levels of 9.5×10^5 per cell were used in the cAMP signaling assay. The cells were cultured at 37° C. in a humidified atmosphere containing 5% CO2 in Dulbecco's modified Eagle's medium (DMEM), supplemented with 10% fetal bovine serum (Hyclone), 100 units/ml penicillin G, and 100 μg/ml streptomycin sulfate (Invitrogen Corp). […] All peptides were dissolved at 1 mM in 10 mM acetic acid, and stored at −80° C. The cAMP stimulation assay was performed as described above for HKRK-B7 cells. […] Cells were treated for 15 minutes at 37° C. with varying concentrations of ligands in the presence of IBMX.

MC3T3-E1 cells = assay: cAMP in MC3T3-E1 cells, dose-response; format: cell-based
Method: In the 1-30 scaffold, Gly, Ser, Leu, Asn, Gln, Trp, Glu, and Lys were substituted at position 29; Gly, Ser, Leu, Asn, Asp, Trp, and Lys were substituted at position 30; and Ser, Leu, Asn, Val, Trp, Glu, and Lys were substituted at position 31. […] These peptides were tested for cAMP activity in MC3T3-E1 cells.

[2] = tested on: LLCPK1-B64 cells or SaOS-2 cells; assay: cAMP screen of substituted PTHrP(1-28) analogs (% parent); format: cell-based; details: parent PTHrP(1-28)NH
Procedure, shortened: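 LLCPK1-B64 or SaOS-2 cells exposed to peptide analogs at 3×10^−9M with IBMX for 30 minutes at room temperature, then cAMP measured. Each analog's response expressed as percentage of that for parent PTHrP(1-28).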

SaOS cells = assay: cAMP production in SaOS cells, dose-response; format: cell-based
[3] = molecular target: T3, human PTHR, G protein-uncoupled conformation (R^0) (Homo sapiens, UniProt Q03431); assay: Competition binding to R0 conformation of hPTHR (COS-7 membranes, GTPγS, 125I-PTH(1-34) tracer); details: for R0/RG selectivity: hPTHR
T3 construct: expressed in transfected cells; host or cells: COS-7, transient (Fugene-6)
T3 sequence (Q03431 27-593): T1 sequence (Q03431 27-593)
Procedure, shortened: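 Membranes from hPTHR-transfected COS-7 cells (20-100 μg/mL protein) incubated 90 min with radioligand (~150,000 cpm/ml) and unlabeled ligands, then filtered. Specific binding expressed as % of binding without competitor.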

[4] = Plasma cAMP in C57BL/6 mice after intravenous injection; format: in vivo; details: i.v. (Example 4)
Method: Blood was withdrawn 10 minutes after injection, and the plasma level of cAMP was measured by RIA.
Blood was withdrawn 10 minutes after injection and plasma level of cAMP was measured by RIA.

[5] = Bone turnover markers (PINP, osteocalcin, CTX) in mice, daily treatment; format: in vivo; details: 5 nmol/kg i.v. daily, days 6 and 13
Method: FIGS. 30A-30F are graphs showing the effects of PTH analogs on plasma bone markers in mice. Mice (C57BL/6, males, 3 months) were intravenously injected daily with either vehicle, rPTH(1-34) (SEQ ID NO:130), M-PTH(1-34) (SEQ ID NO:12), or (EALK)-PTHrP(1-30) (SEQ ID NO:90) (5 nmol/kg; n=7 group) for 14 days. Markers of bone turnover (PINP, CTX and osteocalcin) were assessed by ELISA in blood at day 6 (FIGS. 30A, 30C, and 30E, respectively) and 13 (FIGS. 30B, 30D, and 30F, respectively).
A second set of experiments was performed in which mice received 5 nmol/kg intravenous daily treatment with rPTH(1-34), M-PTH(1-34), or EALK-PTHrP(1-30) for 14 days. Blood samples were taken at days 6 and 13, and markers of bone turnover (PINP, osteocalcin and CTX) were assessed by ELISA.

[6] = Blood ionized calcium in C57BL/6 mice after intravenous injection; format: in vivo; details: 5 nmol/kg i.v.
Method: FIGS. 29A and 29B are graphs showing the effect of R^0 and RG selective PTH analogs on plasma cAMP and calcium in mice. FIGS. 29A and 29B show plasma cAMP concentrations in mice (C57BL/6, males, 3 months) that were administered either vehicle, rPTH(1-34) (SEQ ID NO:130), M-PTH(1-34) (M=A^1,Aib^3,Q^10,Har^11,A^12,W^14,R^19) (SEQ ID NO:12), or E^18,A^22,L^25,K^26-(EALK)-PTHrP(1-30) (SEQ ID NO:90) (5 nmol/kg; n=7 for cAMP, n=4 for calcium) intravenously. […] In the calcium experiment, blood was withdrawn before, and 1, 2, 4 and 6 hours after injection, and ionized calcium was measured using a Ca^++/pH analyzer.
We also characterized the effects of the EALK-PTHrP(1-30) peptide on cAMP production. Three month old male C57BL/6 mice were intravenously injected with either vehicle, rPTH(1-34), M-PTH(1-34) (M=A^1,Aib^3,Q^10,Har^11,A^12,W^14,R^19) or E^18,A^22,L^25,K^26-(EALK)-PTHrP(1-30) (5 nmol/kg). In the cAMP experiment (FIG. 29A), blood was withdrawn 10 minutes after injection and plasma level of cAMP was measured by RIA. In the calcium experiment (FIG. 29B), blood was withdrawn prior to injection and 1, 2, 4, and 6 hours after injection. Ionized calcium was measured using a Ca^++/pH analyzer.

[7] = Bone structural parameters after two-week daily treatment in mice (Piximus, microCT); format: in vivo
Method: FIG. 31 is a set of images showing the effects of two-week daily treatment of R^0 and RG ligands on trabecular and cortical bone structure in mice. Mice (C57BL/6, males, 3 months) were treated (i.v.) with either vehicle, rPTH(1-34) (SEQ ID NO:130), M-PTH(1-34) (SEQ ID NO:12), or E^18,A^22,L^25,K^26 (EALK)PTHrP(1-30) (SEQ ID NO:90) (5 nmol/kg; n=7 group), daily for 14 days, and femurs were analyzed by μCT.
As described above, mice were treated intravenously) with either vehicle, rPTH(1-34), M-PTH(1-34), or EALK-PTHrP(1-30) daily for 14 days.

[8] = Table 2, read-out: RG binding affinity hPTHR IC50
[9] = Table 2, read-out: MC3T3-E1 cAMP EC50
[10] = Table 3, read-out: dose-response cAMP in MC3T3-E1 (EC50)
[11] = Table 2, read-out: SaOS camp EC50
[12] = Piximus, mice, 5 nmol/kg i.v. daily 14 days

CC[C@H](C)[C@H](NC(=O)[C@H](CC(C)C)NC(=O)[C@H](CCCCN)NC(=O)[C@H](CC(C)C)NC(=O)[C@H](CC(C)C)NC(=O)[C@H](Cc1ccccc1)NC(=O)[C@H](C)NC(=O)[C@H](CCCNC(=N)N)NC(=O)[C@H](CCCNC(=N)N)NC(=O)[C@H](CCCNC(=N)N)NC(=O)[C@H](C)NC(=O)[C@H](CC(=O)O)NC(=O)[C@H](CCC(N)=O)NC(=O)[C@@H](NC(=O)[C@H](CO)NC(=O)[C@H](CCCCN)NC(=O)CNC(=O)[C@H](CCCCN)NC(=O)[C@H](CC(=O)O)NC(=O)[C@H](Cc1c[nH]cn1)NC(=O)[C@H](CC(C)C)NC(=O)[C@H](CC(C)C)NC(=O)[C@H](CCC(N)=O)NC(=O)[C@H](Cc1c[nH]cn1)NC(=O)[C@H](CCC(=O)O)NC(=O)[C@H](CO)NC(=O)[C@@H](NC(=O)[C@H](C)N)C(C)C)[C@@H](C)CC)C(N)=O [A18, 22, L25, K26-PTHrP(1-28)NH, A18,22,L25,K26-PTHrP(1-28)] (H-AVSEHQLLHDKGKSIQDARRRAFLLKLI-NH2; N-terminus assumed)
cAMP potency and RG binding affinity compared with PTH(1-34), in words [1]: cAMP potency and RG binding affinity that is greater than that of PTH(1-34) | IC50 [1, 8]: 0.04 nM | cAMP in HKRK-B7 cells Max (human PTH1 receptor): 56.4 pm/well | EC50 (MC3T3-E1 cells; [9]): 0.054 nM | EC50 (MC3T3-E1 cells; [10]): 0.054 nM | screen cAMP (% parent) [2]: 305 % parent | cAMP-inducing activity compared with parent, in words (SaOS cells): Marked enhancements of cAMP-inducing activity | EC50 (SaOS cells; [11]): 0.002 nM | EC50 (SaOS cells; Table 3, read-out: dose-response cAMP in SaOS (EC50)): 0.002 nM | R0/RG selectivity ([3]; Table 2): 6971 | IC50 ([3]; Table 2, read-out: R^0 binding affinity hPTHR IC50): 310 nM | plasma cAMP 10 minutes after injection, in words [4]: Marked enhancements

CC[C@H](C)[C@H](NC(=O)[C@H](CC(C)C)NC(=O)[C@H](CCCCN)NC(=O)[C@H](CC(C)C)NC(=O)[C@H](CC(C)C)NC(=O)[C@H](Cc1ccccc1)NC(=O)[C@H](C)NC(=O)[C@H](CCCNC(=N)N)NC(=O)[C@H](CCCNC(=N)N)NC(=O)[C@H](CCCNC(=N)N)NC(=O)[C@H](CCC(=O)O)NC(=O)[C@H](CC(=O)O)NC(=O)[C@H](CCC(N)=O)NC(=O)[C@@H](NC(=O)[C@H](CO)NC(=O)[C@H](CCCCN)NC(=O)CNC(=O)[C@H](CCCCN)NC(=O)[C@H](CC(=O)O)NC(=O)[C@H](Cc1c[nH]cn1)NC(=O)[C@H](CC(C)C)NC(=O)[C@H](CC(C)C)NC(=O)[C@H](CCC(N)=O)NC(=O)[C@H](Cc1c[nH]cn1)NC(=O)[C@H](CCC(=O)O)NC(=O)[C@H](CO)NC(=O)[C@@H](NC(=O)[C@H](C)N)C(C)C)[C@@H](C)CC)C(=O)N[C@@H](C)C(=O)N[C@@H](CCC(=O)O)C(N)=O [E18, A22, L25, K26-PTHrP(1-30)NH, E18,A22,L25,K26-PTHrP(1-30)] (H-AVSEHQLLHDKGKSIQDERRRAFLLKLIAE-NH2; N-terminus assumed)
IC50 [1, 8]: 0.08 nM | IC50 ([1]; Table 4, human PTH1 receptor, read-out: RG binding IC50): 0.08 nM | EC50 (MC3T3-E1 cells; [9]): 0.059 nM | EC50 (MC3T3-E1 cells; [10]): 0.059 nM | EC50 (SaOS cells; [11]): 0.063 nM | R0/RG selectivity ([3]; Table 2): 11169 | IC50 ([3]; Table 4, human PTH1 receptor, read-out: R0 binding IC50): 945 nM | R0/RG ratio ([3]; human PTH receptor on COS-7 cell membranes): 11813 | effect on bone turnover markers, in words [5]: increased bone formation markers, with relatively smaller effects on the resorption marker | ionized calcium response, in words [6]: similar, if not lower, than that of PTH(1-34) | Lumbar Spine BMD [7, 12]: 0.0464 ± 0.0002 g/cm^2 | Total Femur BMD [7, 12]: 0.620 ± 0.0003 g/cm^2 | effect on trabecular/cortical bone and BMD, in words ([7]; mice, 5 nmol/kg i.v. daily 14 days): increased cortical bone thickness with significance in the distal femur | Conn-Dens. ([7]; microCT distal femur): 117 ± 9 1/mm^3 | Cort Th. ([7]; microCT distal femur): 238 ± 9 μm | Tb · N ([7]; microCT distal femur): 4.13 ± 0.16 1/mm | Tb · Th ([7]; microCT distal femur): 57.8 ± 2.1 μm | TbSp ([7]; microCT distal femur): 238 ± 10 μm | TrabecularBV/TV ([7]; microCT distal femur): 16.5 ± 1.3% | BA ([7]; microCT mid femur): 0.821 ± 0.027 mm^2 | BA/TA ([7]; microCT mid femur): 40.3 ± 0.6% | Cort Th. ([7]; microCT mid femur): 176 ± 4 μm | MA ([7]; microCT mid femur): 1.21 ± 0.03 mm^2 | TA ([7]; microCT mid femur): 2.03 ± 0.06 mm^2
